# Entries after “also recorded” stand apart in the source; their conditions may differ.
# Legend:
# [1] = tested on: rat liver microsomes (RLMs); assay: Inhibitory effect of baohuoside I on tofacitinib metabolism in RLMs; type: in vitro ADME; settings: Lineweaver-Burk plot
# [2] = cited from earlier work
# [3] = tested on: rat liver microsomes (RLMs); settings: tofacitinib 1-400 μM, 0.5 mg/mL RLMs, 1 mM NADPH, 37 °C, 30 min
Km [3] [µM],SMILES,inhibition mechanism on tofacitinib metabolism [1],plasma protein binding [2],Vmax [3] [ng/min/mg]
,COc1ccc(-c2oc3c(CC=C(C)C)c(O)cc(O)c3c(=O)c2O[C@@H]2O[C@@H](C)[C@H](O)[C@@H](O)[C@H]2O)cc1 [Baohuoside I],a mixture of non-competitive and competitive inhibition; also recorded: a combination of non-competitive and competitive inhibition,,
39.9,C[C@@H]1CCN(C(=O)CC#N)C[C@@H]1N(C)c1ncnc2[nH]ccc12 [Tofacitinib],,about 40%,4.2824

# Reference: publication PMC10980839 (Drug Design, Development and Therapy, 2024)
